Results taken from patent publication US20110130374A1, “Small Pyrimidine Derivatives and Methods of Use Thereof” (BIOSEARCH(2007) LTD., priority 2009, published 2011).

What was measured:
A375 melanoma cells = test: Transwell cell migration assay, A375 melanoma cells; type: cell-based; conditions: Homo sapiens, A-375; A375 melanoma cells, Transwell 5 μm pore, 24 h, Example 3 (FIGS. 1A, 1E); read-out: IC50 in the migration assay
Procedure: A375 melanoma cells (CRL-1619, American Type Culture Collection (“ATCC”), Manassas Va., USA)) grown in RPMI medium supplement with 10% FBS were starved for 24 hours in FBS free medium. After starvation of 24 hr, 5×10^4 cells in FBS free medium were placed in the upper chamber of 24-well, Transwell apparatus (CORNING TRANS WELL® polycarbonate membrane inserts, 5 μm pore size) with solvent (DMSO/PEG400) or different concentrations of Compound 1 (PRT7000467), Compound 2 (PRT7041128), or Compound 3 (PRT7081582). Medium containing FBS and compounds was added to the bottom chamber. Twenty-four hours later the melanoma cells from the upper chamber were removed with a cotton swab. Cells that migrated to the lower side of the membrane were stained with Calcein-AM (Sigma) and images were taken with fluorescence microscope. The number of migrating cells was quantified by ImageJ software and the IC50 values were calculated using Prism software (Graphpad) (FIG. 1A,1E).
A375 (melanoma) (CRL-1619, ATCC, Manassas, Va., USA), A431 (melanoma) (CRL-2592, ATCC, Manassas, Va., USA), A2058 (melanoma) (CRL-11147, ATCC, Manassas, Va., USA), MDA-MB-231 (breast) (HTB-26, ATCC, Manassas, Va., USA), LS175T (colon) (ATCC, Manassas, Va., USA), HT29 (colon) (HTB-38, ATCC, Manassas, Va., USA), PC3 (prostate) (CRL-1435, ATCC, Manassas, Va., USA), Panc03.27 (pancreatic) (ATCC, Manassas, Va., USA), 4T1 (breast-mouse) (CRL-2539, ATCC, Manassas. Va., USA), D122 (lung-mouse) (the Weizmann Institute of Science), D122-luc (lung-mouse) (the Weizmann Institute of Science), and B16 F10.9 (melanoma-mouse) cells (Caliper Life Sciences, Hopkinton Mass.), were grown in RPMI medium supplemented with 10% FBS. HUVEC cells were grown in Endothelial Cell Growth Medium 2 and THP1 cells were grown in RPMI medium supplemented with 10% FBS, 2 mM L-Glutamine, 1.5 g/L sodium bicarbonate, 10 mM Hepes, 1 mM sodium pyruvate, 4.5 g/L glucose and 0.05 mM 2-mercaptoethanol. The cells were starved for 24 hours in medium without FBS. At the end of the starvation, 5×10^4 cells in medium without FBS were placed in the upper chamber of 24-well, Transwell apparatus (CORNING TRANSWELL® polycarbonate membrane inserts, 5 μm pore size for […] and THP1 cells and 8 μm pore size for all the other cells) with solvent (DMSO/PEG400) or different concentrations of compound 1 (PRT7000467). Medium with FBS and compounds was added to the bottom chamber. Twenty-four hours later the cells from the upper chamber were removed with a cotton swab. Cells that migrated to the lower side of the membrane were stained with Calcein-AM (Sigma) and images were taken with a fluorescence microscope. The number of migrating cells was quantified by ImageJ software and the IC50 values were calculated using Prism software (Graphpad).

A375 cells = test: Cell viability, WST-1 reagent, A375 cells grown in two-dimension; type: cell-based; conditions: WST-1, 72 h post treatment
Procedure: Compound 1 (PRT7000467), Compound 2 (PRT7041128), and Compound 3 (PRT7081582) are not toxic to cells grown in two-dimension. A375 cells were cultured with RPMI and 10% FBS. The cells were treated with different concentrations of Compound 1 (PRT7000467) and Compound 2 (PRT7041128), then the viability of the cells was determined seventy-two hours post treatment using WST-1 reagent (Roche) (FIG. 1B)

## O=C(Nc1ccc(S(=O)(=O)Nc2ncccn2)cc1)/C(=C\c1cccs1)NC(=O)c1cccs1 [Compound 2]
A375 melanoma cells
  IC50: 9.2 µM
A375 cells
  toxicity to cells grown in two-dimension: not toxic
